For 31 compounds, IC50 results are on record in US20160083391A1, “TRICYCLIC PIPERAZINE DERIVATIVE” (Sunovion Pharmaceuticals Inc., priority 2014, published 2016).

In general, pIC50 refers to the IC50 on a negative log10 scale, so that one unit is a factor of ten.

SMILES strings stand for the structures. pIC50: −log10 of the molar value.

For the assay, the system named is PDE1. In words: In vitro HTRF PDE1 inhibition assay. The format is biochemical. The settings on record: HTRF cGMP assay, 100 nM cyclic GMP, PDE (1A3, 1B or 1C) with calmodulin, 45 minutes at 37° C.; isoform of the tabulated values not stated. The source says: An exemplary procedure for the in vitro Homogenous Time Resolved Fluorescence assay, which can be used to determine the inhibitory action of compounds of the invention toward. PDE1 or its isoforms, follows.
The HTRF PDE1 assay utilized the HTRF (Homogenous Time Resolved Fluorescence) technology, which is based on the competition between unlabeled cyclic nucleotide and cyclic nucleotide labeled with XL665 for the binding to cyclic nucleotide-specific antibody labeled with cryptate. The HTRF signal is thus inversely proportional to the concentration of cyclic nucleotide being measured. Since phosphodiesterases break down cyclic nucleotides the HTRF signal was used to determine PDE activity.
The Cisbio cGMP HTRF assay kit (Cat no: 62GM2PEC) was utilized. Cyclic GMP was diluted to 200 nM in HTRF assay buffer (1 mM CaCl2, 10 mM MgCl2, 10 mM Tris-HCl, 0.1% BSA, pH7.4). 10 μl of compound or DMSO was diluted in 200 nM cyclic GMP solution and added to wells of a 96 well white plate to give 100 nM cyclic GMP in 1% DMSO final concentration. PDE (1A3, 1B or 1C) was diluted to 2× working concentration in HTRF assay buffer with […] Calmodulin, and 10 μl was added to initiate the reaction. The plate was then incubated for 45 minutes at 37° C. d2-Labelled cyclic GMP and anti-cGMP cryptate were diluted in 50 mM phosphate buffer, 0.8M KF, 1% Triton X100, 0.2% BSA, pH7.0. Following incubation 10 μl d2-cGMP, then 10 μl anti cGMP cryptate were added to each well and the plate was incubated for 45 minutes at room temperature. The plate was then read on Perkin Elmer Victor at 2 different FRET readings ex/emm 340 nm/665 nm and 340 nm/615 nm.
Compounds having an IC50 of <1 μM, are denoted as +++. Compounds having an IC50 of 1-10 μM, are denoted as ++. Compounds having an IC50 of >10 μM, are denoted as +.
For orientation: TR-FRET usually uses a lanthanide donor and a delayed reading to cut background.

On to `CC1NCCn2c1nc1c(cnn1C)c2=O` (racemic) [Compound I-3, (±)-1,9-Dimethyl-6,7,8,9-tetrahydropyrazino[1,2-a]pyrazolo[3,4-d]pyrimidin-4(1H)-one], for which the pIC50 is less than 5.00.

`CC1NCCn2c1nc1c(cnn1C(C)C)c2=O` (racemic) [Compound I-4, (±)-1-Isopropyl-9-methyl-6,7,8,9-tetrahydropyrazino[1,2-a]pyrazolo[3,4-d]pyrimidin-4(1H)-one] had a pIC50 of less than 5.00.

`CC1NCCn2c1nc1c(cnn1-c1ccccc1)c2=O` (racemic) [Compound I-5, (±)-9-Methyl-1-phenyl-6,7,8,9-tetrahydropyrazino[1,2-a]pyrazolo[3,4-d]pyrimidin-4(1H)-one]: the pIC50 is less than 5.00.

Compound `O=c1c2cn[nH]c2nc2n1CCNC2Cc1ccccc1` (racemic) [Compound I-6, (±)-9-Benzyl-6,7,8,9-tetrahydropyrazino[1,2-a]pyrazolo[3,4-d]pyrimidin-4(1H)-one] had a pIC50 of less than 5.00.

Regarding `Cn1ncc2c(=O)n3c(nc21)C(Cc1ccccc1)NCC3` (racemic) [Compound I-7, (±)-9-Benzyl-1-methyl-6,7,8,9-tetrahydropyrazino[1,2-a]pyrazolo[3,4-d]pyrimidin-4(1H)-one], the pIC50 was less than 5.00.

Regarding `CC(C)n1ncc2c(=O)n3c(nc21)C(Cc1ccccc1)NCC3` (racemic) [Compound I-8, (±)-9-Benzyl-1-isopropyl-6,7,8,9-tetrahydropyrazino[1,2-a]pyrazolo[3,4-d]pyrimidin-4(1H)-one], the pIC50 is 5.00 to 6.00.

In turn, `O=c1c2cnn(-c3ccccc3)c2nc2n1CCNC2Cc1ccccc1` (racemic) [Compound I-9, (±)-9-Benzyl-1-phenyl-6,7,8,9-tetrahydropyrazino[1,2-a]pyrazolo[3,4-d]pyrimidin-4(1H)-one] had a pIC50 of less than 5.00.

`CC(C)c1n[nH]c2c(=O)n3c(nc12)C(C)NCC3` (racemic) [Compound I-11, (±)-3-Isopropyl-5-methyl-5,6,7,8-tetrahydropyrazino[1,2-a]pyrazolo[4,3-d]pyrimidin-10(1H)-one] showed a pIC50 of less than 5.00.

On to `CC(C)c1n[nH]c2c(=O)n3c(nc12)C(Cc1ccccc1)NCC3` (racemic) [Compound I-12, (±)-5-Benzyl-3-isopropyl-5,6,7,8-tetrahydropyrazino[1,2-a]pyrazolo[4,3-d]pyrimidin-10(1H)-one], for which the pIC50 was less than 5.00.

For `CC(C)c1nn(C)c2c(=O)n3c(nc12)C(C)NCC3` (racemic) [Compound I-14, (±)-3-Isopropyl-1,5-dimethyl-5,6,7,8-tetrahydropyrazino[1,2-a]pyrazolo[4,3-d]pyrimidin-10(1H)-one], the pIC50 was less than 5.00.

Turning to `CC(C)c1nn(C)c2c(=O)n3c(nc12)C(Cc1ccccc1)NCC3` (racemic) [Compound I-15, (±)-5-Benzyl-3-isopropyl-1-methyl-5,6,7,8-tetrahydropyrazino[1,2-a]pyrazolo[4,3-d]pyrimidin-10(1H)-one], the pIC50 was less than 5.00.

Turning to `CC1c2nc3c(cnn3C)c(=O)n2CCN1C` (racemic) [Compound I-20, (±)-1,8,9-Trimethyl-6,7,8,9-tetrahydropyrazino[1,2-a]pyrazolo[3,4-d]pyrimidin-4(1H)-one], the pIC50 is less than 5.00.

As to `CC1c2nc3c(cnn3C(C)C)c(=O)n2CCN1C` (racemic) [Compound I-21, (±)-1-Isopropyl-8,9-dimethyl-6,7,8,9-tetrahydropyrazino[1,2-a]pyrazolo[3,4-d]pyrimidin-4(1H)-one], the pIC50 was less than 5.00.

Compound `CC1c2nc3c(cnn3-c3ccccc3)c(=O)n2CCN1C` (racemic) [Compound I-22, (±)-8,9-Dimethyl-1-phenyl-6,7,8,9-tetrahydropyrazino[1,2-a]pyrazolo[3,4-d]pyrimidin-4(1H)-one] showed a pIC50 of less than 5.00.

As to `CN1CCn2c(nc3[nH]ncc3c2=O)C1Cc1ccccc1` (racemic) [Compound I-23, (±)-9-Benzyl-8-methyl-6,7,8,9-tetrahydropyrazino[1,2-a]pyrazolo[3,4-d]pyrimidin-4(1H)-one], the pIC50 is less than 5.00.

Consider `CN1CCn2c(nc3c(cnn3C)c2=O)C1Cc1ccccc1` (racemic) [Compound I-24, (±)-9-Benzyl-1,8-dimethyl-6,7,8,9-tetrahydropyrazino[1,2-a]pyrazolo[3,4-d]pyrimidin-4(1H)-one], for which the pIC50 is less than 5.00.

Turning to `CC(C)n1ncc2c(=O)n3c(nc21)C(Cc1ccccc1)N(C)CC3` (racemic) [Compound I-25, (±)-9-Benzyl-1-isopropyl-8-methyl-6,7,8,9-tetrahydropyrazino[1,2-a]pyrazolo[3,4-d]pyrimidin-4(1H)-one], the pIC50 was less than 5.00.

For the compound `CN1CCn2c(nc3c(cnn3-c3ccccc3)c2=O)C1Cc1ccccc1` (racemic) [Compound I-26, (±)-9-Benzyl-8-methyl-1-phenyl-6,7,8,9-tetrahydropyrazino[1,2-a]pyrazolo[3,4-d]pyrimidin-4(1H)-one], the pIC50 was less than 5.00.

The compound `CC1c2nc3c(cnn3C)c(=O)n2CCN1Cc1ccccc1` (racemic) [Compound I-31, (±)-8-Benzyl-1,9-dimethyl-6,7,8,9-tetrahydropyrazino[1,2-a]pyrazolo[3,4-d]pyrimidin-4(1H)-one] showed a pIC50 of less than 5.00.

Consider `CC1c2nc3c(cnn3C(C)C)c(=O)n2CCN1Cc1ccccc1` (racemic) [Compound I-32, (±)-8-Benzyl-1-isopropyl-9-methyl-6,7,8,9-tetrahydropyrazino[1,2-a]pyrazolo[3,4-d]pyrimidin-4(1H)-one], for which the pIC50 was less than 5.00.

The compound `CC1c2nc3c(cnn3-c3ccccc3)c(=O)n2CCN1Cc1ccccc1` (racemic) [Compound I-33, (±)-8-Benzyl-9-methyl-1-phenyl-6,7,8,9-tetrahydropyrazino[1,2-a]pyrazolo[3,4-d]pyrimidin-4(1H)-one] had a pIC50 of less than 5.00.

The compound `O=c1c2cn[nH]c2nc2n1CCN(Cc1ccccc1)C2Cc1ccccc1` (racemic) [Compound I-34, (±)-8,9-Dibenzyl-6,7,8,9-tetrahydropyrazino[1,2-a]pyrazolo[3,4-d]pyrimidin-4(1H)-one] had a pIC50 of less than 5.00.

The compound `Cn1ncc2c(=O)n3c(nc21)C(Cc1ccccc1)N(Cc1ccccc1)CC3` (racemic) [Compound I-35, (±)-8,9-Dibenzyl-1-methyl-6,7,8,9-tetrahydropyrazino[1,2-a]pyrazolo[3,4-d]pyrimidin-4(1H)-one] had a pIC50 of less than 5.00.

Compound `CC(C)n1ncc2c(=O)n3c(nc21)C(Cc1ccccc1)N(Cc1ccccc1)CC3` (racemic) [Compound I-36, (±)-8,9-Dibenzyl-1-Isopropyl-6,7,8,9-tetrahydropyrazino[1,2-a]pyrazolo[3,4-d]pyrimidin-4(1H)-one] had a pIC50 of less than 5.00.

For the compound `O=c1c2cnn(-c3ccccc3)c2nc2n1CCN(Cc1ccccc1)C2Cc1ccccc1` (racemic) [Compound I-37, (±)-8,9-Dibenzyl-1-phenyl-6,7,8,9-tetrahydropyrazino[1,2-a]pyrazolo[3,4-d]pyrimidin-4(1H)-one], the pIC50 is less than 5.00.

`CC(C)c1n[nH]c2c(=O)n3c(nc12)C(C)N(C)CC3` (racemic) [Compound I-38, (±)-3-Isopropyl-5,6-dimethyl-5,6,7,8-tetrahydropyrazino[1,2-a]pyrazolo[4,3-d]pyrimidin-10(1H)-one] showed a pIC50 of less than 5.00.

Compound `CC(C)c1n[nH]c2c(=O)n3c(nc12)C(Cc1ccccc1)N(C)CC3` (racemic) [Compound I-39, (±)-5-Benzyl-3-isopropyl-6-methyl-5,6,7,8-tetrahydropyrazino[1,2-a]pyrazolo[4,3-d]pyrimidin-10(1H)-one] showed a pIC50 of less than 5.00.

In the case of `CC(C)c1nn(C)c2c(=O)n3c(nc12)C(C)N(C)CC3` (racemic) [Compound I-41, (±)-3-Isopropyl-1,5,6-trimethyl-5,6,7,8-tetrahydropyrazino[1,2-a]pyrazolo[4,3-d]pyrimidin-10(1H)-one], the pIC50 is less than 5.00.

On to `CC(C)c1nn(C)c2c(=O)n3c(nc12)C(Cc1ccccc1)N(C)CC3` (racemic) [Compound I-42, (±)-5-Benzyl-3-isopropyl-1,6-dimethyl-5,6,7,8-tetrahydropyrazino[1,2-a]pyrazolo[4,3-d]pyrimidin-10(1H)-one], for which the pIC50 is less than 5.00.

In the case of `CC(C)c1n[nH]c2c(=O)n3c(nc12)C(C)N(Cc1ccccc1)CC3` (racemic) [Compound I-44, (±)-6-Benzyl-3-isopropyl-5-methyl-5,6,7,8-tetrahydropyrazino[1,2-a]pyrazolo[4,3-d]pyrimidin-10(1H)-one], the pIC50 is less than 5.00.

With `CC(C)c1n[nH]c2c(=O)n3c(nc12)C(Cc1ccccc1)N(Cc1ccccc1)CC3` (racemic) [Compound I-45, (±)-5,6-dibenzyl-3-isopropyl-5,6,7,8-tetrahydropyrazino[1,2-a]pyrazolo[4,3-d]pyrimidin-10(1H)-one], the pIC50 is less than 5.00.
